pIC50: −log10 of the molar value. In brackets after ≈: the same amount, converted by molar mass.
What was measured:
[1] = biological target: Potassium voltage-gated channel subfamily A member 5 (Homo sapiens, UniProt P22460); experiment: Inhibition of human Kv1.5 channel expressed in CHO cells by high throughput planar patch clamp assay; type: cell-based
[2] = biological target: Voltage-gated inwardly rectifying potassium channel KCNH2 (Homo sapiens, UniProt Q12809)
[3] = biological target: Intermediate conductance calcium-activated potassium channel protein 4 (Homo sapiens, UniProt O15554); experiment: Inhibition of IK channel (unknown origin)
Chain of Intermediate conductance calcium-activated potassium channel protein 4 (O15554 whole entry, the tested form may be a part): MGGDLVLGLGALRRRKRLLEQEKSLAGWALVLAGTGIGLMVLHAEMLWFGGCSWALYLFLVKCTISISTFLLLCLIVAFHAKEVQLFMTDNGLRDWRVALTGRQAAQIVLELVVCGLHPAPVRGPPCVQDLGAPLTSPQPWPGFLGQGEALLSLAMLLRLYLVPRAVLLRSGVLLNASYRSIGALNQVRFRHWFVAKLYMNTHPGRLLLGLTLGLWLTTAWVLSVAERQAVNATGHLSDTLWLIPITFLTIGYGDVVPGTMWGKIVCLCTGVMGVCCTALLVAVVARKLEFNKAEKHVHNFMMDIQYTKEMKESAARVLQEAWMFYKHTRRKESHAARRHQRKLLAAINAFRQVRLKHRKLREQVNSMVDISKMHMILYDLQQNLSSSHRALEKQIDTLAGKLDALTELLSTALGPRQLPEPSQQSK

Oryctolagus cuniculus [4] = experiment: Increase of effective refractory period in New Zealand white rabbit assessed as maximum change in QT interval at 0.1 and 1 umol/kg/min for 15 mins infusions; type: functional
Oryctolagus cuniculus [5] = organism: Oryctolagus cuniculus; experiment: Toxicity in New Zealand white rabbit assessed as CNS effect at plasma concentration of 3 to 4 times 20% change in atrium effective refractory period; type: organism-based; settings: in vivo
Plasma = experiment: Unbound steady state plasma concentration in New Zealand white rabbit assessed as concentration required to 20% change in atrium effective refractory period at 0.1 and 1 umol/kg/min for 15 mins infusions; type: ADME, cell-free, Oryctolagus cuniculus; settings: 0.25 h
[6] = Solubility of the compound at pH 7.4; type: physicochemical; settings: buffer
[7] = Apparent permeability of the compound in human Caco2 cells; type: ADME, cell-based; settings: Caco-2
[8] = Intrinsic clearance in human liver microsomes; type: ADME, Microsome; settings: read-out: CLH
[9] = Oral bioavailability in rat; type: ADME, organism-based; settings: in vivo
[10] = Clearance in rat; type: ADME, organism-based; settings: in vivo
[11] = Lipophilicity, log D of compound at pH 7.4; type: physicochemical; settings: buffer
Oryctolagus cuniculus [12] = experiment: Toxicity in New Zealand white rabbit assessed as CNS effect at 0.1 and 1 umol/kg/min; type: organism-based, Central nervous system; settings: in vivo

Chain of Potassium voltage-gated channel subfamily A member 5 (P22460 whole entry): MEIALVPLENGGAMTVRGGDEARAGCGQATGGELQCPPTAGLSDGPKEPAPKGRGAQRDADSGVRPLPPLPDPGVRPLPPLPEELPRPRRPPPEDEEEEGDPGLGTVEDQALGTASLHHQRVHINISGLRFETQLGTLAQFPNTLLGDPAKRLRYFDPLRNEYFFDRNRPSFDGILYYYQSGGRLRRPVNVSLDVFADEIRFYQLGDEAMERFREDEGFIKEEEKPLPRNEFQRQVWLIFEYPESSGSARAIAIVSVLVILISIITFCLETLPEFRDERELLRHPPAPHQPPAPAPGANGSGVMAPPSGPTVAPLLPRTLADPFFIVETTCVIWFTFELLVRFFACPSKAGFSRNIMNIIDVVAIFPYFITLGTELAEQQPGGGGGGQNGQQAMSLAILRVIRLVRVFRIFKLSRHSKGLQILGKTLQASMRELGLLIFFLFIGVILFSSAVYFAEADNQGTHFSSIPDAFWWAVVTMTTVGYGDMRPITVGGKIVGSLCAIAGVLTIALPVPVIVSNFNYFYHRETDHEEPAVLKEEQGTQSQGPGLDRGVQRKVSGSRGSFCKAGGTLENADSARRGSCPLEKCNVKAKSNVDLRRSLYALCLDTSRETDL
Chain of Voltage-gated inwardly rectifying potassium channel KCNH2 (Q12809 whole entry): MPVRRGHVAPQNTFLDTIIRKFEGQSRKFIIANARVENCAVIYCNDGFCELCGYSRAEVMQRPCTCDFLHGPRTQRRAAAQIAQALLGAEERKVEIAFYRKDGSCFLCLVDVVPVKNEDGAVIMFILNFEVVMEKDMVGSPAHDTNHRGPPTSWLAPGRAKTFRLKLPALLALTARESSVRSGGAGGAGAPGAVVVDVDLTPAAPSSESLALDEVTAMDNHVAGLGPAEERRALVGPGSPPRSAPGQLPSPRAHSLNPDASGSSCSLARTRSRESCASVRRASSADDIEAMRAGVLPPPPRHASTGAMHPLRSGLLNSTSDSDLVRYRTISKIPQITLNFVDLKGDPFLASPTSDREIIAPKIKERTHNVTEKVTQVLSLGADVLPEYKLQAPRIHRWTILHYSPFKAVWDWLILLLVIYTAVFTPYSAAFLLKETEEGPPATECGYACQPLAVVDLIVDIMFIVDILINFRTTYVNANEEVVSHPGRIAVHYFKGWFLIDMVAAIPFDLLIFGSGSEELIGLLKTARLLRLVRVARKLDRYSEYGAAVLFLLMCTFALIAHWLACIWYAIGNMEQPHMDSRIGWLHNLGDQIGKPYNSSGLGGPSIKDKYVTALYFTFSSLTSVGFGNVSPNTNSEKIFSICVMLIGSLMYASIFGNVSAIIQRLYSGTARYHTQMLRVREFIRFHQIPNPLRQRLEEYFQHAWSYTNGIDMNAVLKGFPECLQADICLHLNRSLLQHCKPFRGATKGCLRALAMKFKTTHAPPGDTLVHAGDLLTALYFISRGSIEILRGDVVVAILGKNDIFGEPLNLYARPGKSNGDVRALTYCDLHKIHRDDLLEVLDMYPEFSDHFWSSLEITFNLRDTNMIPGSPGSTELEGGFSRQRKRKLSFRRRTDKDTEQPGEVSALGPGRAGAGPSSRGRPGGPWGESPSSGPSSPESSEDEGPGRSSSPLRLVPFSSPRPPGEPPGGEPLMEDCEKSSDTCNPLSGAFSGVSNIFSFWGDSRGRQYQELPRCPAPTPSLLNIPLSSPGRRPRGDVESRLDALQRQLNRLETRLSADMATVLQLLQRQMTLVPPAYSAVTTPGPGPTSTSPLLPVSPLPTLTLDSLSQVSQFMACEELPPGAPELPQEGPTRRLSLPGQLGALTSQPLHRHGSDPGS

Structure (SMILES)	pIC50 [1]	pIC50 [2]	pIC50 [3]	also measured
O=P(Nc1cccnc1)(c1ccccc1)c1ccccc1	< 4.52	< 4.48	–	–
O=P(Nc1cc(F)ccc1-n1cccn1)(c1ccccc1)c1ccccc1	5.39	< 4.48	5.11	–
COCCN(c1cccnc1)P(=O)(c1ccccc1)c1ccccc1	6.21	< 4.48	< 4.48	–
CCCN(c1cncnc1)P(=O)(c1ccccc1)c1ccccc1	6.00	–	< 4.48	Activity (Oryctolagus cuniculus [4]): <10%; Activity (Oryctolagus cuniculus [5]): Toxic; Cp(f)ss (Plasma): 600 nM
CCCN(c1cccnc1)P(=O)(c1ccccc1)c1ccccc1	6.92	< 4.48	4.85	solubility [6]: 91 µM (≈ 30.6 µg/mL); Papp [7]: 30 ×10⁻⁶ cm/s; Activity (Oryctolagus cuniculus [4]): 23%; Activity (Oryctolagus cuniculus [5]): Toxic; microsomal CLint [8]: 158 µL/min/mg; bioavailability [9]: 55%; Cp(f)ss (Plasma): 800 nM; clearance [10]: 11 mL/min/kg; logD [11]: 2.6
N#CCCCN(c1cccnc1)P(=O)(c1ccccc1)c1ccccc1	5.72	< 4.48	4.51	–
O=P(c1ccccc1)(c1ccccc1)N(Cc1ccccn1)Cc1ccccn1	5.89	< 4.48	< 4.48	Activity (Oryctolagus cuniculus [12]): Toxic
O=P(c1ccccc1)(c1ccccc1)N(c1cccnc1)c1cccnc1	5.80	–	–	–
CCCN(c1cccc(C#N)c1)P(=O)(c1ccccc1)c1ccccc1	6.70	< 4.48	5.57	–
O=P(NCc1ccccc1-c1cccnc1)(c1ccccc1)c1ccccc1	5.64	< 4.48	< 4.48	–
c1ccc([C@H]([C@@H](c2ccccc2)N2CCCCC2)N2CCCCC2)cc1	5.77	–	–	–
N#Cc1cccc(-c2ncccc2CNP(=O)(c2ccccc2)c2ccccc2)c1	6.27	–	5.11	Activity (Oryctolagus cuniculus [12]): Toxic
CCCN(c1cccc(S(C)(=O)=O)c1)P(=O)(c1ccccc1)c1ccccc1	6.03	< 4.48	< 4.48	Activity (Oryctolagus cuniculus [12]): Toxic
CCCNC(c1cccnc1)P(=O)(c1ccccc1)c1ccccc1 (racemic)	6.12	–	4.85	–
O=P(c1ccccc1)(c1ccccc1)C(c1ccccc1)c1cccnc1 (racemic)	7.00	–	6.30	–
O=P(c1ccccc1)(c1ccccc1)C(c1cccnc1)N1CCCCC1 (racemic)	6.85	–	5.74	–
O=P(c1ccccc1)(c1ccccc1)C(c1cccnc1)c1cccnc1	6.74	–	6.00	–
COc1ccc(-c2ncccc2NP(=O)(c2ccccc2)c2ccccc2)cc1	4.77	< 4.48	–	–
CC(C)[C@@H]1CC[C@@H](C)C[C@@H]1P(=O)(c1ccccc1)c1ccccc1	–	–	–	logD [11]: 6
O=P(NCc1cccnc1-c1cccc(Cl)c1)(c1ccccc1)c1ccccc1	6.48	–	5.31	–
O=P(NCc1cccnc1-c1cc(Cl)cc(Cl)c1)(c1ccccc1)c1ccccc1	7.10	–	4.89	–
O=P(NCc1cccnc1-c1cccnc1)(c1ccccc1)c1ccccc1	5.57	–	4.48	–
O=P(c1ccccc1)(c1ccccc1)N(Cc1ccccn1)c1cccnc1	6.28	< 4.48	5.00	Activity (Oryctolagus cuniculus [12]): Toxic

From ChEMBL document CHEMBL2311449, “Synthesis and evaluation of diphenylphosphinic amides and diphenylphosphine oxides as inhibitors of Kv1.5” (Bioorg Med Chem Lett, 2013)
